Starred links: 1 amine or outer side, 2 acyl side, 3 side chain; linkers in the order of their positions; H or OH if unused. Non-standard residues stand in square brackets, D forms with d. Residues, ends and D or L forms follow the SMILES beside them. *: point of attachment. N(3-lauroyloxypropyl)Gly = CCCCCCCCCCCC(=O)OCCCNCC(=O)O; N(2-decanoyloxyethyl)Gly = CCCCCCCCCC(=O)OCCNCC(=O)O; Gly(N-(CH2)3O-octanoyl) = CCCCCCCC(=O)OCCCNCC(=O)O; N(3-imidazol-1-ylpropyl)Gly = O=C(O)CNCCCn1ccnc1; Gly(N-3-morpholinopropyl) = O=C(O)CNCCCN1CCOCC1; N(2-ethylhexyl)Gly = CCCCC(CC)CNCC(=O)O; X1 = CCCCC(CC)CSSCCN(CC(=O)[*:2])[*:1]; X3 = CCCCCCCCSSCCN(CC(=O)[*:2])[*:1]; N(CH(CH2OH)2)Gly = O=C(O)CNC(CO)CO; N(octyl)Gly = CCCCCCCCNCC(=O)O; NDecylGly = CCCCCCCCCCNCC(=O)O; For = O=C*
Tests used:
[1] = tested on: mRNA; assay: mRNA encapsulation (modified Quant-iT RiboGreen assay); type: physicochemical; settings: RiboGreen, without vs with Triton X-100
Method: The mRNA concentration and the percentage of encapsulated mRNA were determined using fluorescent-based Quant-iT RiboGreen RNA Reagent Kit (Life Technologies, Waltham, MA) as described previously. To determine the mRNA concentration, PNPs was incubated with […] for 10 min to release entrapped mRNA, followed by addition of RiboGreen RNA reagent. The fluorescence intensity of mRNA-RiboGreen reagent complex (excitation at 485 nm and emission at 530 nm) was detected using a microplate reader. The ratio of fluorescence without and with Triton X-100 were used to calculate the percentage of encapsulated mRNA.
(§1) Degradable peptoids described herein were formulated as various formulations described in Table 3 according to the procedure described in Example 2. Particle size was characterized as described in Example 2, and […] encapsulation of mRNA was determined as described in Example 3.

[2] = tested on: firefly luciferase; assay: In vivo firefly luciferase expression after intravenous injection of fLuc mRNA delivery vehicles (IVIS imaging); set-up: species or system female Balb/c mice; settings: mice, 2.5 ug fLuc mRNA intravenously, 6 hours post-injection
Method: (§2) All animal studies were conducted under accreditation by the California State Department of Public Health and under supervision of IACUC and Veterinarian Supervision. For imaging studies, female Balb/c mice (6-8 weeks old) were obtained and acclimatized for a minimum of 3 days prior to experiments. The animals were maintained on a 12 hour light cycle in a temperature and humidity controlled room. A daily health check was performed as well as food and water check. For dosing, mice were injected with 2.5 ug fLuc mRNA-containing Nutshells intravenously in 100 μL total injection value. At 6 hours post-injection, mice were anesthetized with isoflurane, injected IP with 30 mg/mL D-luciferin at a dose of 10 μL per gram bodyweight intraperitoneally. Imaging was done 10 minutes post D-luciferin injection using an IVIS Spectrum Imaging System (Caliper Life Sciences). Immediately after in vivo imaging, mice were terminally bled by cardiac puncture and euthanized. The organs of interest were harvested, placed in black 24-well plates, and imaged. Living Image software (Perkin Elmer) was used to quantify the total photon flux in regions of interest.
Luciferase expression in these formulations was also determined as described in Example 4.

[3] = tested on: luciferase; assay: Luciferase expression after local (intramuscular or subcutaneous) administration of mRNA; type: in vivo; settings: mRNA 0.01 mpk, 6 hours; for IM Flux: intramuscular; for SC Flux: subcutaneous
Method: as §2
Aminolipidated peptoids were also effective for local administration of mRNA through subcutaneous (S.C.) or intramuscular (I.M.) routes of administration. For these examples, mRNA was administered at a dose of 0.1 mpk for intratomoral, or 0.01 mpk for subcutaneous and intramuscular administration, and the resulting bioluminescence quantified after 6 hours according to a similar procedure as described in Example 4.

[4] = Delivery vehicle size and polydispersity by dynamic light scattering; type: physicochemical; settings: DLS in PBS; peptoid:DSPC:Cholesterol:DMG-PEG2000 weight ratio 20:1.79:7.16:1.84, mRNA
Method: Delivery vehicles were formulated by rapid microfluidic mixing using a high throughput microfluidic system. Briefly, ethanol solutions containing peptoid, DSPC, Cholesterol, DMG-PEG2000 at weight ratio of 20:1.79:7.16:1.84, were mixed with 10 mM sodium citrate buffer (pH 5.0) containing synthesized mRNA at a ratio of 1:3 by volume. Peptoid based LNPs were subsequently dialyzed against 1-2 liters of tris-sucrose buffer (TS7, pH 7.4) overnight at 4 °C. Delivery vehicle size and polydispersity (PDI) was measured by dynamic light scattering in PBS.
as §1

[5] = tested on: hEPO; assay: Quantification of hEPO in serum after IV injection of mRNA (Human EPO ELISA); type: in vivo; settings: Balb/c mice, 2.5 μg mRNA IV, serum after 6 hours
Method: Balb/c mice were treated with 2.5 μg of mRNA coding for human erythropoiten via IV injection according to a similar method as in Example 4. hEPO protein in the serum was quantified after 6 hours using the Human EPO ELISA Kit from Invitrogen (catalog #BMS2035-2). Wash buffer (PBS with 1% tween 20) and assay buffer (PBS with 1% tween 20, 10% BSA) were prepared from a 20× concentrate with milli-Q water. Serum samples were diluted with PBS according to expected EPO concentration, with a 50× dilution for low expression samples and up to a 30,000× dilution for samples expected to have high expression. Microwell strips were washed in a plate washer with wash buffer and tapped on an absorbent pad to remove excess buffer. 100 μL of sample diluent were added to each well that will be used for the standard curve. 50 μL of sample diluent was added to each sample well.
The standard curve was prepared by reconstituting the human erythropoietin standard by adding the volume of water listed on the vial label. Standard was swirled gently and allowed to reconstitute for 10 minutes prior to use, then 100 μL is added to standard wells and mixed well. 100 μL from standard wells were then transferred to sample wells and mixed well. This was repeated 5 times to produce 2 columns of standard dilutions from 100 to 1.6 mIU/mL. 100 μL was discarded from the last microwells. The final 2 wells contained 100 μL of sample diluent and served as a blank. An external standard was also included to facilitate a mIU/mL conversion to ng/mL. The same serial dilution method was repeated starting with the external standard at 6.25 ng/mL. Once the standards were added, 50 μL of each sample was added in duplicate to the sample wells. Next, the biotin-conjugate was prepared by diluting 1:100 in assay buffer. 50 μL of biotin-conjugate was added to all wells and the plate was covered with a plate seal and shaken at room temperature for 1 hour. During the last few minutes of shaking, streptavidin-HRP was prepared by diluting 1:100 in assay buffer. The plate was washed on a plate washer and tapped on an absorbent pad to remove remaining wash buffer.
100 μL of the diluted streptavidin-HRP was added to each well and the plate was sealed and shaken for 15 minutes at room temperature. After 15 minutes, the plate seal was removed and the plate was washed on a plate washer and remaining wash buffer tapped out on an absorbent pad. 100 μL of TMB substrate was added to all wells and the plate was incubated for 10 minutes at room temperature out of direct light. Color development was checked every few minutes and the assay was stopped when the highest standard was dark blue. The reaction was stopped by pipetting 100 μL of stop solution into each well. Immediately after stop solution was added, the plate was gently tapped to ensure the solution was mixed. Absorbance was then read at 450 nm for each well. A standard curve was plotted for both the kit-provided standards (mIU/mL) and the external standard (ng/mL) and fit using Prism. Sample absorbances that fell within the standard curve were interpolated and adjusted for dilution (including a 2× assay dilution). Samples that were not within the standard curve were repeated at an adjusted dilution.

Row | mean percent encapsulation of RNA [1] | PDI [4] | Particle Size [4] | Structure (SMILES) | Total Flux [2] | IM Flux [3] | SC Flux [3] | hEPO [5]
1 | 74.2% | 0.090 | 86.0 nm | CCCCCCCCN(C=O)CC(=O)N(CCCOC(=O)CCCCCCC)CC(=O)N(CCSSCC(CC)CCCC)CC(=O)N(CCCN1CCOCC1)CC(=O)N(CCSSCC(CC)CCCC)CC(=O)N(CCCOC(=O)CCCCCCC)CC(=O)N(CCCCCCCC)CC(N)=O (stereo not shown) [Compound 132] (For-[N(octyl)Gly][Gly(N-(CH2)3O-octanoyl)][X1][Gly(N-3-morpholinopropyl)][X1][Gly(N-(CH2)3O-octanoyl)][N(octyl)Gly]-NH2) | 1.31E+10 p/s | 4.62E+08 p/s | 6.94E+08 p/s | 
2 | 86.7% | 0.083 | 76.9 nm | CCCCCCCC(=O)OCCCN(C=O)CC(=O)N(CCCOC(=O)CCCCCCC)CC(=O)N(CCSSCC(CC)CCCC)CC(=O)N(CCCN1CCOCC1)CC(=O)N(CCSSCC(CC)CCCC)CC(=O)N(CCCOC(=O)CCCCCCC)CC(=O)N(CCCOC(=O)CCCCCCC)CC(N)=O (stereo not shown) [Compound 133] (For-[Gly(N-(CH2)3O-octanoyl)][Gly(N-(CH2)3O-octanoyl)][X1][Gly(N-3-morpholinopropyl)][X1][Gly(N-(CH2)3O-octanoyl)][Gly(N-(CH2)3O-octanoyl)]-NH2) | 2.80E+08 p/s | 1.08E+07 p/s | 3.73E+07 p/s | 
3 | 83.7% | 0.062 | 73.8 nm | CCCCCCCCSSCCN(CC(=O)N(CCCN1CCOCC1)CC(=O)N(CCSSCCCCCCCC)CC(=O)N(CCCOC(=O)CCCCCCC)CC(=O)N(CCCOC(=O)CCCCCCC)CC(N)=O)C(=O)CN(CCCOC(=O)CCCCCCC)C(=O)CN(C=O)CCCOC(=O)CCCCCCC [Compound 134] (For-[Gly(N-(CH2)3O-octanoyl)][Gly(N-(CH2)3O-octanoyl)][X3][Gly(N-3-morpholinopropyl)][X3][Gly(N-(CH2)3O-octanoyl)][Gly(N-(CH2)3O-octanoyl)]-NH2) | 5.63E+08 p/s | 6.40E+07 p/s | 1.60E+08 p/s | 
4 | 91.4% | 0.158 | 59.2 nm | CCCCCCCCCC(=O)OCCN(CC(=O)N(CCOC(=O)CCCCCCCCC)CC(=O)N(CCSSCC(CC)CCCC)CC(=O)N(CCOC(=O)CCCCCCCCC)CC(=O)N(CCOC(=O)CCCCCCCCC)CC(=O)N(CCSSCC(CC)CCCC)CC(N)=O)C(=O)CNC(CO)CO (stereo not shown) [Compound 135] (H-[N(CH(CH2OH)2)Gly][N(2-decanoyloxyethyl)Gly][N(2-decanoyloxyethyl)Gly][X1][N(2-decanoyloxyethyl)Gly][N(2-decanoyloxyethyl)Gly][X1]-NH2) | 8.92E+08 p/s | 3.49E+08 p/s | 5.56E+08 p/s | 

Second part, the compound before the results:

Row | Structure (SMILES) | mean percent encapsulation of RNA [1] | PDI [4] | Particle Size [4] | Total Flux [2] | IM Flux [3] | SC Flux [3] | hEPO [5]
5 | CCCCCCCCCCCC(=O)OCCCN(CC(=O)N(CCCOC(=O)CCCCCCCCCCC)CC(=O)N(CC(=O)N(CCCOC(=O)CCCCCCCCCCC)CC(=O)N(CCCOC(=O)CCCCCCCCCCC)CC(=O)N(CC(N)=O)CC(CC)CCCC)CC(CC)CCCC)C(=O)CNCCCn1ccnc1 (stereo not shown) [Compound 68] (H-[N(3-imidazol-1-ylpropyl)Gly][N(3-lauroyloxypropyl)Gly][N(3-lauroyloxypropyl)Gly][N(2-ethylhexyl)Gly][N(3-lauroyloxypropyl)Gly][N(3-lauroyloxypropyl)Gly][N(2-ethylhexyl)Gly]-NH2) | 79.7% | 0.178 | 87.2 nm | 4.20E+08 p/s | 5.10E+06 p/s | 3.39E+08 p/s | 72.6 ng/mL
6 | CCCCCCCCCCCC(=O)OCCCN(C=O)CC(=O)N(CCCOC(=O)CCCCCCCCCCC)CC(=O)N(CC(=O)N(CCCN1CCOCC1)CC(=O)N(CC(=O)N(CCCOC(=O)CCCCCCCCCCC)CC(=O)N(CCCOC(=O)CCCCCCCCCCC)CC(N)=O)CC(CC)CCCC)CC(CC)CCCC (stereo not shown) [Compound 91] (For-[N(3-lauroyloxypropyl)Gly][N(3-lauroyloxypropyl)Gly][N(2-ethylhexyl)Gly][Gly(N-3-morpholinopropyl)][N(2-ethylhexyl)Gly][N(3-lauroyloxypropyl)Gly][N(3-lauroyloxypropyl)Gly]-NH2) |  |  |  |  | 2.44E+08 p/s | 4.22E+07 p/s | 17.4 ng/mL
7 | CCCCCCCC(=O)OCCCN(C=O)CC(=O)N(CCCOC(=O)CCCCCCC)CC(=O)N(CCc1ccccc1)CC(=O)N(CC(=O)N(CCCn1ccnc1)CC(=O)N(CCCOC(=O)CCCCCCC)CC(=O)N(CCc1ccccc1)CC(=O)N(CCCOC(=O)CCCCCCC)CC(=O)N(CC(N)=O)CC(CC)CCCC)CC(CC)CCCC (stereo not shown) [Compound 123] | 56.3% | 0.201 | 118.1 nm |  | 6.45E+06 p/s | 1.01E+07 p/s | 172 ng/mL
8 | CCCCCCCCCCN(CC(=O)N(CCSSCC(CC)CCCC)CC(=O)N(CCCOC(=O)CCCCCCC)CC(N)=O)C(=O)CN(CCSSCC(CC)CCCC)C(=O)CN(CCCOC(=O)CCCCCCC)C(=O)CN(CC(CC)CCCC)C(=O)CNC(CO)CO (stereo not shown) [Compound 130] (H-[N(CH(CH2OH)2)Gly][N(2-ethylhexyl)Gly][Gly(N-(CH2)3O-octanoyl)][X1][NDecylGly][X1][Gly(N-(CH2)3O-octanoyl)]-NH2) | 86.0% | 0.086 | 75.5 nm | 4.45E+09 p/s | 2.72E+08 p/s | 1.92E+08 p/s | 

From patent US20260373248A1, “DEGRADABLE PEPTOIDS” (Medici Therapeutics, Inc., priority 2023, published 2026)
